Target: T1, human GLP1R (Homo sapiens, UniProt P43220)
T1 construct: expressed in transfected cells; host or cells: CHO cells (ATCC), transient transfection with pCMV-human GLP1R
Test: Human GLP-1 receptor transfected cell assay (MRE/CRE-luciferase reporter gene, agonist activity)
Type: cell-based
Conditions: 6 h, read-out: Activity (agonist), percentage of the activity of the control; for activation at 3.16 µM: concentration 3.16 μM; for activation at 10 µM: concentration 10 μM; for activation at 1 µM: concentration 1 μM; for activation at 3 µM: concentration 3 μM
Protocol: The glucagon-like peptide I receptor (GLP1R) is a class B Gs-coupled membrane receptor, an agonist of which activates adenylate cyclase (AC) and elevates intracellular cAMP level. In turn, the high content of secondary messengers can activate the cAMP response element binding protein (CREB), which can translocate into nucleus to activate gene transcription.
A reporter gene based screening assay was established to measure the effect of a compound on GLP1R. In this assay, a compound was incubated with CHO cells transiently transfected with a human GLP1R plasmid and a multiple response element (MRE)/cAMP response element (CRE)-driven luciferase reporter plasmid. Once luciferase was induced by the compound, its specific substrate can be activated to produce light signal for measurement.
Materials used in this assay included: (i) cell line: Chinese hamster ovary (CHO) cells (ATCC); (ii) fetal bovine serum (FBS) (Biochrom Co.); (iii) culture medium: RPMI1640 (Invitrogen Co.) supplemented with 10% FBS; (iv) LIPOFECTAMINE™ 2000 Reagent (Invitrogen Co.); (v) plasmids: pCMV-human GLP1R and pGL3-1905 reporter plasmid; (vi) GLP1 (7-36 amide) peptide (Sigma Co.); and (vii) BRIGHT-GLO™ Luciferase Assay System (Promega Co.).
Instruments used in this assay included: (i) Form a carbon dioxide incubator (Thermo Form a Co.); and (ii) Flexstation 3 (Molecular Device Co.).
Before transfection, CHO cells were plated into a 6-well culture plate at 800,000/2 mL/well, and cultured at 37° C. in 5% CO2 overnight. On the transfection day, cells were transfected with receptor plasmid and reporter plasmid using LIPOFECTAMINE™ 2000 reagent. After 6-hour transfection, cells were digested and seeded into 96-well plates at 20,000/100 μL/well. After 14-16 hour incubation, transfected cells were washed with 100 μL serum-free RPMII 640 medium first, and then added 50 μL of the culture medium. The GLP-1 standard and test compounds were respectively diluted to a series of concentrations, which were then added into the above 96-well culture plate at 50 μL/well. The cells were incubated at 37° C. in 5% CO2 for 6 hrs. The activity of luciferase was detected using BRIGHT-GLO™ Luciferase Analytic System, and the reading was performed with a Flexstation3 plate reader machine.

T1 sequence (P43220 24-463): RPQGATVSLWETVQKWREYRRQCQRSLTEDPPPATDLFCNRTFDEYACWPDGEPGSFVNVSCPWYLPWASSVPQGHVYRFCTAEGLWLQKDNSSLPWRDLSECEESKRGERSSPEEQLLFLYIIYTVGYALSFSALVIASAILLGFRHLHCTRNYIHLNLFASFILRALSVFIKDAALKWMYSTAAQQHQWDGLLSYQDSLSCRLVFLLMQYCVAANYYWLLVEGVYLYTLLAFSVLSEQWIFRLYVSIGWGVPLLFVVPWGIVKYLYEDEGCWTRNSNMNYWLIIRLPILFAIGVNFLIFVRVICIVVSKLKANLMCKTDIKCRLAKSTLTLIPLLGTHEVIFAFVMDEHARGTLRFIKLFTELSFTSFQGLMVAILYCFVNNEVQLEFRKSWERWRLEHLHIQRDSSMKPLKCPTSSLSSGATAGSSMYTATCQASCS

Row | Compound | activation at 3.16 µM [%] | activation at 10 µM [%] | also measured
1 | Cc1ccc(-n2cc(C(=O)NC(Cc3ccc(-c4noc(-c5ccc(NC(=O)OC(C)(C)C)cc5)n4)c(F)c3)C(=O)O)cn2)cc1F (stereo not shown) [Compound 3B] | > 60 |  | 
2 | Cc1ccc(-c2nc(C(=O)NC(Cc3ccc(C#Cc4ccc(NC(=O)OC(C)(C)C)cc4)c(F)c3)C(=O)O)cs2)cc1 (stereo not shown) [Compound 3E] |  |  | activation at 1 µM: 40 to 60%
3 | Cc1cc(-n2cc(C(=O)NC(Cc3ccc(-c4noc(-c5ccc(NC(=O)OC(C)(C)C)cc5)n4)c(F)c3)C(=O)O)cn2)ccc1F (stereo not shown) [Compound 3G] |  |  | activation at 3 µM: 40 to 60%
4 | CC(C)(C)OC(=O)Nc1ccc(-c2nc(-c3ccc(CC(NC(=O)c4ncn(-c5ccc(C(C)(C)C)cc5)n4)C(=O)O)cc3F)no2)cc1 (stereo not shown) [Compound 3I] |  | 40 to 60 | 
5 | CC(C)(C)OC(=O)Nc1ccc(-c2nc(-c3ccc(CC(NC(=O)c4cn(Cc5ccc(F)cc5)nn4)C(=O)O)cc3F)no2)cc1 (stereo not shown) [Compound 3K] |  |  | activation at 3 µM: 20 to 40%
6 | CC(C)(C)OC(=O)Nc1ccc(-c2nc(-c3ccc(CC(NC(=O)c4cc(-c5ccc(Cl)cc5F)c[nH]4)C(=O)O)cc3F)no2)cc1 (stereo not shown) [Compound 3L] |  |  | activation at 1 µM: 20 to 40%
7 | CC(C)(C)OC(=O)Nc1ccc(-c2nc(-c3ccc(CC(Nc4ccnc(N5CCCCC5)n4)C(=O)O)cc3F)no2)cc1 (stereo not shown) [Compound 3M, 3-{4-[5-(4-tert-Butoxycarbonylamino-phenyl)-[1,2,4]oxadiazol-3-yl]-3-fluoro-phenyl}-2-(2-piperidin-1-yl-pyrimidin-4-ylamino)-propionic acid] |  | 20 to 40 | 
8 | Cc1ccc(S(=O)(=O)NC(C)(Cc2ccc(-c3noc(-c4ccc(NC(=O)OC(C)(C)C)cc4)n3)c(F)c2)C(=O)O)cc1 (stereo not shown) [Compound 3N] | 20 to 40 |  | 
9 | CC(C)(C)OC(=O)Nc1ccc(-c2nc(-c3ccc(CC(NS(=O)(=O)c4ccc(Br)c(F)c4)C(=O)O)cc3F)no2)cc1 (stereo not shown) [Compound 3O] |  |  | activation at 1 µM: 20 to 40%
10 | Cc1ccc(S(=O)(=O)NC(Cc2ccc(-c3noc(-c4ccc(NC(=O)OC(C)(C)C)cc4)n3)c(F)c2)C(=O)O)cc1Cl (stereo not shown) [Compound 3P, 3-{4-[5-(4-tert-Butoxcarbonylamino-phenyl)-[1,2,4]oxadiazol-3-yl]-3-fluorophenyl}-2-(3-chloro-4-methyl-benzenesulfonylamino)-propionic acid] |  |  | activation at 1 µM: 40 to 60%
11 | CC(C)(C)OC(=O)Nc1ccc(-c2nc(-c3ccc(C[C@@H](NS(=O)(=O)c4ccc(-c5ccccc5)cc4)C(=O)O)cc3F)no2)cc1 [Compound 3Q] |  |  | activation at 1 µM: 20 to 40%
12 | CC(C)(C)OC(=O)Nc1ccc(-c2nc(-c3ccc(CC(NC(=O)c4cc(-c5ccc(F)cc5)n[nH]4)C(=O)O)cc3F)no2)cc1 (stereo not shown) [Compound 3R] |  |  | activation at 3 µM: > 60%
13 | CC1CCN(c2cccc(C(=O)NC(Cc3ccc(-c4noc(-c5ccc(NC(=O)OC(C)(C)C)cc5)n4)c(F)c3)C(=O)O)c2)CC1 (stereo not shown) [Compound 3S] |  |  | activation at 1 µM: > 60%
14 | CC(C)(C)OC(=O)Nc1ccc(-c2nc(-c3ccc(CC(NC(=O)c4cccc(NCc5ccccc5)c4)C(=O)O)cc3F)no2)cc1 (stereo not shown) [Compound 3U] |  |  | activation at 1 µM: 20 to 40%
15 | CC(C)(C)OC(=O)Nc1ccc(-c2nc(-c3ccc(CC(NC(=O)c4ccc(N5CCOCC5)cc4)C(=O)O)cc3F)no2)cc1 (stereo not shown) [Compound 3V] |  |  | activation at 3 µM: 20 to 40%
16 | CC1CCN(S(=O)(=O)NC(Cc2ccc(-c3noc(-c4ccc(NC(=O)OC(C)(C)C)cc4)n3)c(F)c2)C(=O)O)CC1 (stereo not shown) [Compound 3W] |  |  | activation at 1 µM: 40 to 60%
17 | Cc1ccc(CN2CCN(S(=O)(=O)NC(Cc3ccc(-c4noc(-c5ccc(NC(=O)OC(C)(C)C)cc5)n4)c(F)c3)C(=O)O)CC2)cc1 (stereo not shown) [Compound 3X, 3-{4-[5-(4-tert-Butoxycarbonylamino-phenyl)-[1,2,4]oxadiazol-3-yl]-3-fluoro-phenyl}-2-[4-(4-methyl-benzyl)-piperazine-1-sulfonylamino]-propionic acid] |  |  | activation at 3 µM: > 60%
18 | CC(C)(C)OC(=O)Nc1ccc(-c2nc(-c3ccc(CC(NS(=O)(=O)N4CCN(c5ccc(C(F)(F)F)cc5)CC4)C(=O)O)cc3F)no2)cc1 (stereo not shown) [Compound 3Y] |  | > 60 | 
19 | Cc1ccc(N2CCN(S(=O)(=O)NC(Cc3ccc(-c4noc(-c5ccc(NC(=O)OC(C)(C)C)cc5)n4)c(F)c3)C(=O)O)CC2)cc1 (stereo not shown) [Compound 3Z] |  |  | activation at 3 µM: > 60%
20 | CC(C)(C)OC(=O)Nc1ccc(-c2nc(-c3ccc(CC(NS(=O)(=O)N4CCN(c5ccc(Cl)cc5)CC4)C(=O)O)cc3F)no2)cc1 (stereo not shown) [Compound 4A] |  | 40 to 60 | 
21 | CC(C)(C)OC(=O)Nc1ccc(-c2nc(-c3ccc(CC(NS(=O)(=O)N4CCN(c5ccccc5F)CC4)C(=O)O)cc3F)no2)cc1 (stereo not shown) [Compound 4B] | 40 to 60 |  | 
22 | Cc1cccc(CN2CCN(S(=O)(=O)NC(Cc3ccc(-c4noc(-c5ccc(NC(=O)OC(C)(C)C)cc5)n4)c(F)c3)C(=O)O)CC2)c1 (stereo not shown) [Compound 4C] |  |  | activation at 1 µM: > 60%
23 | Cc1ccc(N2CCN(C(=O)NC(Cc3ccc(-c4noc(-c5ccc(NC(=O)OC(C)(C)C)cc5)n4)c(F)c3)C(=O)O)CC2)cc1 (stereo not shown) [Compound 4D] |  |  | activation at 1 µM: > 60%
24 | CC(C)(C)OC(=O)Nc1ccc(C#Cc2ccc(CC(NC(=O)c3cccc(-c4ccc(Cl)cc4)c3)C(=O)O)cc2F)cc1 (stereo not shown) [Compound 4E] |  |  | activation at 3 µM: 20 to 40%
25 | CC(C)(C)OC(=O)Nc1ccc(-c2nc(-c3ccc(CC(NC(=O)N4CCN(C(=O)OC(C)(C)C)CC4)C(=O)O)cc3F)no2)cc1 (stereo not shown) [Compound 4F] | 40 to 60 |  | 

Further lines, with some results ahead:

Row | activation at 3.16 µM [%] | activation at 10 µM [%] | Compound | also measured
26 | > 60 |  | CC(C)(C)OC(=O)Nc1ccc(-c2nc(-c3ccc(CC(NC(=O)c4c[nH]c(-c5ccc(Cl)cc5)n4)C(=O)O)cc3F)no2)cc1 (stereo not shown) [Compound 2S] | 
27 |  | > 60 | CC(C)(C)OC(=O)Nc1ccc(-c2nc(-c3ccc(CC(NC(=O)c4cnn(-c5ccc(F)cc5)c4)C(=O)O)cc3F)no2)cc1 (stereo not shown) [Compound 2T] | 
28 |  | > 60 | CC(C)(C)OC(=O)Nc1ccc(-c2nc(-c3ccc(CC(NC(=O)c4cc(-c5ccc(F)cc5)no4)C(=O)O)cc3F)no2)cc1 (stereo not shown) [Compound 2U] | 
29 | 40 to 60 |  | CC(C)(C)OC(=O)Nc1ccc(-c2nc(-c3ccc(CC(NC(=O)c4c[nH]c(-c5ccc(Br)cn5)n4)C(=O)O)cc3F)no2)cc1 (stereo not shown) [Compound 2V] | 
30 |  | > 60 | COc1ccc(Cn2cc(C(=O)NC(Cc3ccc(-c4noc(-c5ccc(NC(=O)OC(C)(C)C)cc5)n4)c(F)c3)C(=O)O)cn2)cc1 (stereo not shown) [Compound 2W] | 
31 |  | > 60 | Cc1ccc(-c2nc(C(=O)NC(Cc3ccc(-c4noc(-c5ccc(NC(=O)OC(C)(C)C)cc5)n4)c(F)c3)C(=O)O)co2)cc1 (stereo not shown) [Compound 2X] | 
32 | > 60 |  | Cn1c(C(=O)NC(Cc2ccc(-c3noc(-c4ccc(NC(=O)OC(C)(C)C)cc4)n3)c(F)c2)C(=O)O)cnc1-c1ccc(Cl)cc1 (stereo not shown) [Compound 2Y] | 
33 | > 60 |  | CC(C)(C)OC(=O)Nc1ccc(-c2nc(-c3ccc(CC(NC(=O)c4cnn(-c5ccc(F)c(F)c5)c4)C(=O)O)cc3F)no2)cc1 (stereo not shown) [Compound 2Z] | 
34 | > 60 |  | CC(C)(C)OC(=O)Nc1ccc(-c2nc(-c3ccc(CC(NC(=O)c4cnn(-c5ccc(C(C)(C)C)cc5)c4)C(=O)O)cc3F)no2)cc1 (stereo not shown) [Compound 3A] | 
35 |  | > 60 | CC(C)(C)OC(=O)Nc1ccc(-c2nc(-c3ccc(CC(NC(=O)c4cn(Cc5ccc(F)c(F)c5)nn4)C(=O)O)cc3F)no2)cc1 (stereo not shown) [Compound 3C] | 
36 |  | > 60 | CC(C)c1ccc(-n2cnc(C(=O)NC(Cc3ccc(-c4noc(-c5ccc(NC(=O)OC(C)(C)C)cc5)n4)c(F)c3)C(=O)O)n2)cc1 (stereo not shown) [Compound 3D] | 
37 | 20 to 40 |  | Cc1cc(Cn2cc(C(=O)NC(Cc3ccc(-c4noc(-c5ccc(NC(=O)OC(C)(C)C)cc5)n4)c(F)c3)C(=O)O)cn2)ccc1F (stereo not shown) [Compound 3F] | 
38 |  | 20 to 40 | CC(C)(C)OC(=O)Nc1ccc(-c2nc(-c3ccc(CC(NC(=O)c4coc(-c5ccc(Cl)cc5)n4)C(=O)O)cc3F)no2)cc1 (stereo not shown) [Compound 3H] | 
39 |  | 40 to 60 | CC(C)(C)OC(=O)Nc1ccc(-c2nc(-c3ccc(CC(NC(=O)c4ccn(-c5ccc(C(F)(F)F)cc5)n4)C(=O)O)cc3F)no2)cc1 (stereo not shown) [Compound 3J] | 
40 |  | 40 to 60 | CC(C)(C)OC(=O)Nc1ccc(-c2nc(-c3ccc(CC(NC(=O)c4cccc(Nc5ccccc5)c4)C(=O)O)cc3F)no2)cc1 (stereo not shown) [Compound 3T] | 
41 | > 60 |  | CC(C)(C)OC(=O)Nc1ccc(-c2nc(-c3ccc(CC(NC(=O)Nc4cc(-c5ccccc5)n[nH]4)C(=O)O)cc3F)no2)cc1 (stereo not shown) [Compound 4G] | 
42 | > 60 |  | CC(C)(C)OC(=O)Nc1ccc(-c2nc(-c3ccc(CC(NC(=O)Nc4ccncc4)C(=O)O)cc3F)no2)cc1 (stereo not shown) [Compound 4H] | 
43 | > 60 |  | CC(C)(C)OC(=O)Nc1ccc(-c2nc(-c3ccc(CC(NC(=O)Nc4cc(-c5ccc(Cl)cc5)n[nH]4)C(=O)O)cc3F)no2)cc1 (stereo not shown) [Compound 4I] | 

— patent US8748412B2, “Phenylalanine derivatives and their use as non-peptide GLP-1 receptor modulators” (Argusina Bioscience Inc., priority 2011, dated 2014)
